# Test results published in US8759504B2, “Cholinergic/serotoninergic receptor and uses thereof” (AbbVie Inc., priority 2007, dated 2014).
# Entries after “also recorded” stand apart in the source; their conditions may differ. Marks after values point to notes of the source that are not given here.
# How the values were obtained:
# Chimera 2 [1] = target: T1, Chimera 2 (Homo sapiens, UniProt P36544, M226I/T225V); test: Whole cell patch clamp in HEK-293 cells; type: cell-based; design: expressed in transfected cells
# Chimera 2 [2] = target: T1, Chimera 2; test: Two electrode voltage clamp in Xenopus oocytes (POETs), agonist and modulator responses; type: cell-based; design: expressed in transfected cells; host or cells: Xenopus laevis oocytes (transient, A2)
# [3] = target: T2, wild-type α7 nicotinic acetylcholine receptor (Homo sapiens, UniProt P36544); test: Two electrode voltage clamp in Xenopus oocytes, agonist and modulator responses; type: cell-based
# T2 construct: expressed in transfected cells; host or cells: Xenopus laevis oocytes
# Chimera 1 [4] = target: T3, Chimera 1 (Homo sapiens, UniProt P36544, M226I/T225V); test: Two electrode voltage clamp in Xenopus oocytes (POETs), agonist and modulator responses; type: cell-based; design: expressed in transfected cells; host or cells: Xenopus laevis oocytes (transient, A1)
# [5] = target: T4, wild-type human 5-HT3A receptors (Homo sapiens, UniProt P46098); test: Two electrode voltage clamp in Xenopus oocytes, agonist and modulator responses; type: cell-based
# T4 construct: expressed in transfected cells; host or cells: Xenopus laevis oocytes
# T4 sequence (P46098 1-484 isoform P46098-4): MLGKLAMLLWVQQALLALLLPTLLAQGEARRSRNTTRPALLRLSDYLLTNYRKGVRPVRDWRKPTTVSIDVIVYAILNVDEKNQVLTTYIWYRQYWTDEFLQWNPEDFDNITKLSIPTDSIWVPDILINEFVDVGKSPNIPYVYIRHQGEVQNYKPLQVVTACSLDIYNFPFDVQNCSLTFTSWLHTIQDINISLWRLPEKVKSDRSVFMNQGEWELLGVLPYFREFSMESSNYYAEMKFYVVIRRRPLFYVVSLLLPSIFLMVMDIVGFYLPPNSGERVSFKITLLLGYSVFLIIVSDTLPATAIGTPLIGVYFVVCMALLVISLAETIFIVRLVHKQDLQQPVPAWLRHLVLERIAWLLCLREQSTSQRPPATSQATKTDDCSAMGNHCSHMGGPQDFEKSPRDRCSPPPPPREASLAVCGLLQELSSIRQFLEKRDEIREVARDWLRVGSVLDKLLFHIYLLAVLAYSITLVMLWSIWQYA
# Chimera 1 [6] = target: T3, Chimera 1; test: Membrane potential imaging (FLIPR-FMP) in HEK-293 cells; type: cell-based; design: expressed in transfected cells; settings: for Modulation of submaximum agonist-evoked membrane potential response (words): HEK-293 cells, FMP
# Chimera 2 [7] = target: T1, Chimera 2; test: as above; type: cell-based; design: expressed in transfected cells; settings: for Modulation of submaximum agonist-evoked membrane potential response (words): HEK-293 cells, FMP
# [8] = target: T5, rat brain α7* nicotinic acetylcholine receptors (Rattus norvegicus, UniProt Q05941); test: [3H]A-585539 radioligand binding, rat brain homogenates
# T5 construct: expressed both as a native (rat cortex) or α7/5-HT3 chimeric receptor; from tissue; host or cells: rat brain / rat cortex homogenates
# Chimera 2 [9] = target: T1, Chimera 2; test: [3H]A-585539 radioligand binding, HEK-293 membranes/homogenates; design: expressed in transfected cells
# T2 sequence (P36544 23-502): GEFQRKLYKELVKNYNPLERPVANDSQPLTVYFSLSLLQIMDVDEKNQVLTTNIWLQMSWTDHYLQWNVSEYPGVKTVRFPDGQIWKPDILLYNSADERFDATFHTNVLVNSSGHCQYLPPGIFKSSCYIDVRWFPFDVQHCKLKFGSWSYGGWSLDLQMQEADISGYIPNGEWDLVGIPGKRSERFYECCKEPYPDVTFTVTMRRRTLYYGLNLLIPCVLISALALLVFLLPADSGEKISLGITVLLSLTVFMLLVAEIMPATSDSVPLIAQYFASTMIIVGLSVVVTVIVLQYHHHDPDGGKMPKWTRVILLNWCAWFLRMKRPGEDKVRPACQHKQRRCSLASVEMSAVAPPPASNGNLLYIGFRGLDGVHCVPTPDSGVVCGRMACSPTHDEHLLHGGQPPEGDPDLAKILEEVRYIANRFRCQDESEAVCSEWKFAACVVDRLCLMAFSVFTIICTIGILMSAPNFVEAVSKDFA
# T1 sequence (P36544 with tags, fused parts or gaps T225V/M226I): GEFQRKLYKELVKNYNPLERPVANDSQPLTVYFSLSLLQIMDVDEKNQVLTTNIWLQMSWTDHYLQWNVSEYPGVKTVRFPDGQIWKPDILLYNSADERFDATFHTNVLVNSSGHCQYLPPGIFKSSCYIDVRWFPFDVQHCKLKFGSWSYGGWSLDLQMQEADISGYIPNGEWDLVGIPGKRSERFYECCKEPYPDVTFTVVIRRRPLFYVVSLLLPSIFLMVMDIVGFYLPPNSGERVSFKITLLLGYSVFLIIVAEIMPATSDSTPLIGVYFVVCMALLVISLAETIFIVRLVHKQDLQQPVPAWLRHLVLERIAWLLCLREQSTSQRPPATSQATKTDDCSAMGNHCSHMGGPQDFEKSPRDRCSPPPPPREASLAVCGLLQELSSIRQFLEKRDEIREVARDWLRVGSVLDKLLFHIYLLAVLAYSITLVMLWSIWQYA
# T3 sequence (P36544 with tags, fused parts or gaps T225V/M226I): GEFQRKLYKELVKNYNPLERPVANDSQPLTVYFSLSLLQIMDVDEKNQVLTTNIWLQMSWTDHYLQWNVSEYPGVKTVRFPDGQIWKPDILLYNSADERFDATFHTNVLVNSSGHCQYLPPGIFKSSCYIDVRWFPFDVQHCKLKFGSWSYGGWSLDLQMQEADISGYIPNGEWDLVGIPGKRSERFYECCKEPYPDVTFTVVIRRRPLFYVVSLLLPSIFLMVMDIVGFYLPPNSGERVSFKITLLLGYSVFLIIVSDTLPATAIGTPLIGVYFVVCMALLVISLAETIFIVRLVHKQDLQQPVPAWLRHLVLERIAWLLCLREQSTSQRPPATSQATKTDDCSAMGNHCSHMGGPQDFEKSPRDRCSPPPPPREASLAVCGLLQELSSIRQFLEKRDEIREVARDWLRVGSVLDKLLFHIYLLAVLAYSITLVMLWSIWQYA
# T5 sequence (Q05941 23-502): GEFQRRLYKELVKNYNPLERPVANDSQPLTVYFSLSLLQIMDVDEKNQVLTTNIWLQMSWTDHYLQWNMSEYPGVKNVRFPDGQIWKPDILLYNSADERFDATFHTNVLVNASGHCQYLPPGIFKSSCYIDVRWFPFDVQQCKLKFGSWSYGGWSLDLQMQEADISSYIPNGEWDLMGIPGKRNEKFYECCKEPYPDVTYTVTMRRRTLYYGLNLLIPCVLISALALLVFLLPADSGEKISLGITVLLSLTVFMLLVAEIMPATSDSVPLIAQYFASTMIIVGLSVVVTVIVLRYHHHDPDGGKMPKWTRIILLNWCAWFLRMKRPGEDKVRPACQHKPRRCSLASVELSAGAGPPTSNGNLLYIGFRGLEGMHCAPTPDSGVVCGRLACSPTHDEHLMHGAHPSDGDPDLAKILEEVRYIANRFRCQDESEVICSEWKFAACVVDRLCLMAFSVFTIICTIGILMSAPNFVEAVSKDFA
structure (smiles),measurement,setting,value
"O=c1c(-c2ccc(O)cc2)coc2cc(O)cc(O)c12 [Genistein, genistein]",Directly evoked peak response normalized to 100 μM ACh,Chimera 2 [1]; 100 μM,72.6±22.2%
same,Directly evoked total charge (integral) normalized to 100 μM ACh,Chimera 2 [1]; 100 μM,162.5±5.3%
same,Direct current activation by modulator alone,"Chimera 2 [1]; genistein 100 μM, 5-HI 10 mM",directly activated the Chimera 2 receptor current
same,Positive allosteric modulation of ACh-evoked current,"Chimera 2 [1]; genistein 30-50 μM, 5-HI 1 mM",effective as positive allosteric modulators
same,Percentage potentiation of submaximum agonist-evoked responses (mean±S.E.M.),Chimera 2 [2]; 10-30 μM ACh,234±19%
same,Direct current activation by modulator alone,Chimera 2 [2]; Xenopus oocytes,activated currents at 30 and 100 μM; also recorded: evoked unique agonist-like current
same,Effect of modulator on ACh-evoked current (words),Chimera 2 [2]; Xenopus oocytes,potentiated peak amplitude of ACh current responses
same,Fold increase of submaximum ACh-evoked currents,Chimera 2 [2]; Xenopus oocytes,2-3 fold
same,Effect of modulator on ACh-evoked current (words),"Chimera 2 [2]; Xenopus oocytes, listed as genestein",potentiated ACh responses in Chimera 2
same,EC50,"Chimera 2 [2]; read-out: Positive allosteric modulation potency, two electrode voltage clamp: EC50 (95% C.I.)",5.2 µM
same,Percentage potentiation of submaximum agonist-evoked responses (mean±S.E.M.),[3]; 100 μM ACh,246±17%
same,EC50,"[3]; Positive allosteric modulation potency, two electrode voltage clamp: EC50 (95% C.I.), submaximum ACh (100 μM)-evoked response",10.6 µM
same,Direct current activation by modulator alone,[3]; Xenopus oocytes,did not activate currents
same,Effect of modulator on ACh-evoked current (words),[3]; Xenopus oocytes,primarily increasing the current amplitude
same,Fold increase of submaximum ACh-evoked currents,[3]; Xenopus oocytes,2-3 fold
same,Percentage potentiation of submaximum agonist-evoked responses (mean±S.E.M.),Chimera 1 [4]; 100 μM ACh,65±27%
same,Direct current activation by modulator alone,Chimera 1 [4]; Xenopus oocytes,did not activate currents
same,inhibition at 100 µM,Chimera 1 [4]; read-out: Observed % inhibitory effect on submaximum ACh-evoked response,~35%
same,Percentage potentiation of submaximum agonist-evoked responses (mean±S.E.M.),[5]; 1-3 μM 5-HT,52±7%
same,Direct current activation by modulator alone,[5]; Xenopus oocytes,did not activate currents
same,Effect of modulator on agonist (5-HT)-evoked current,[5]; Xenopus oocytes,Neither compound increased the responses
same,Observed % inhibitory effect on submaximum 5-HT-evoked response,[5]; at 30 μM,~48%^a at 30
same,inhibition at 30 µM,"[5]; at 30 μM, read-out: Observed % inhibitory effect on submaximum 5-HT-evoked response",~50%
same,Modulation of submaximum agonist-evoked membrane potential response (words),Chimera 1 [6],unable to do so
same,Modulation of submaximum agonist-evoked membrane potential response (words),Chimera 1 [6]; listed as genistein,not effective as positive allosteric modulator; also recorded: inhibited Chimera 1
same,IC50,"Chimera 1 [6]; read-out: FMP imaging: IC50 (95% C.I.), inhibition of agonist-evoked response, submaximum NS6784",23.3 µM
same,Maximum positive allosteric modulation efficacy,Chimera 1 [6]; submaximum NS6784 120-200 nM,14±3%
same,Modulation of submaximum agonist-evoked membrane potential response (words),Chimera 2 [7],enhanced agonist-evoked depolarization
same,Modulation of submaximum agonist-evoked membrane potential response (words),Chimera 2 [7]; listed as genestein,very effective
same,Modulation of submaximum agonist-evoked membrane potential response (words),Chimera 2 [7]; listed as genistein,potentiated submaximum NS6784 evoked responses; also recorded: potentiated Chimera 2 receptors
same,EC50,"Chimera 2 [7]; read-out: FMP imaging: positive allosteric modulation EC50 (95% C.I.), submaximum NS6784 (60-70 nM)",4.3 µM
same,Maximum positive allosteric modulation efficacy,Chimera 2 [7]; submaximum NS6784 60-70 nM,221±30%
same,Effect on [3H]A-585539 saturation binding,[8]; 10 μM,did not alter the saturation profile; also recorded: did not alter the saturation binding
same,Competition / displacement of [3H]A-585539 binding,"[8]; rat cortex, increasing concentrations",neither compound effectively displaced the binding
same,Effect on [3H]A-585539 saturation binding,Chimera 2 [9]; 10 μM,did not alter the saturation profile; also recorded: did not alter the saturation binding
same,Competition / displacement of [3H]A-585539 binding,Chimera 2 [9]; increasing concentrations,neither compound effectively displaced the binding
